Results as given in article PMC10257182, “Discovery of senolytics using machine learning” (Nature Communications, 2023).
Where “and” joins values, the source holds several entries; their conditions need not be identical. Identical values can stand only once.

Assays:
Type in all cases: cell-based, human
[1] = system: senescent A549 cells (etoposide-induced); assay: Nuclei count senolytic assay, therapy-induced senescence (TIS) model, senescent cells; conditions: for % Cell Survival: senescence cells, single replicate
Procedure: (§1) We performed a second validation of the effectiveness of our machine learning models using a different stressor. We focused on therapy-induced senescence (TIS, Supplementary Fig. 6a), where human epithelial cancerous cells (A549) were induced to become senescent by addition of etoposide. Cells were treated with 100 μM etoposide for 48 h, followed by another three days of exposure to media in standard conditions.
(§2) We performed experimental validation of the compounds with z-score > 8 (Fig. 2e). […] We employed two cellular models of senescence: one of OIS and a second one of TIS. For the OIS case, we utilised IMR90 ER:RAS cells with 4-OHT at 100 nM. […] For the TIS model, we used A549 cells with etoposide at 100 μM. The exposure of the cells to etoposide lasted 48 h, after which period the cells were cultivated for a further three days with normal media.
(§3) IMR90 (CCL-186) human foetal lung fibroblasts and A549 (CCL-185) human lung adenocarcinoma cells were obtained from the American Type Culture Collection (ATCC, Manassas, VA). The cell lines were confirmed to be mycoplasma negative (Lonza MycoAlert, cat #LT07-118). IMR90 ER:RAS is a derivative of IMR90 cells expressing a switchable version of oncogenic H-Ras[84]. IMR90 ER:RAS and A549 cells were maintained in Dulbecco’s Modified Eagle Medium (DMEM, ThermoFisher) supplemented with foetal bovine serum (10%), L-glutamine (2 mM, ThermoFisher), and antibiotic-antimycotic solution (1%, ThermoFisher) and incubated under standard tissue culture conditions (37 °C and 5% CO2). For induction of the senescent phenotype, IMR90-ER:RAS cells were cultured in hydroxytamoxifen (4-OHT) (Sigma) added media at 100 nM final concentration. IMR90 were kept in culture for over 27 passages for replicative senescence. Cells were tested for mycoplasma on a regular basis.
(§4) Cells were seeded (50 μL per well) into 384-well plates (IMR90 ER:RAS cells in Nunc Optical Bottom Polybase Microplates [#142761, Thermo Scientific, Rochester, NY] and A549 cells in CELLSTAR Cell Culture Microplates [#781091, Greiner Bio-One, Kremsmünster, Austria]). Cells were incubated under standard tissue culture conditions for 24 h before the addition of compounds. Passage 14 IMR90 ER:RAS cells were seeded at 1300 cells per well in the control condition, and at 1600 cells per well in the senescent case. Passage 34 A549 cells were seeded at 7000 cells per well in the control condition, and at 10,000 cells per well in the senescent case.
(§5) Dose response plates were prepared with a DMSO control and a 10-point […] concentration range, and added to the compounds using a D300e digital dispenser (Tecan Trading AG, Switzerland) at a final concentration of between 10 μM and 10 nM. Every screened condition was carried out in triplicate. After 72 h of incubation with exposure to the compounds, cells were fixed by the addition of an equal volume of formaldehyde (8%, 50 μL; #BP531-500, Fisher Bioreagents, Fisher Scientific, Loughborough, Leicestershire) to the existing media, incubated at room temperature (30 min), and washed three times in phosphate-buffered saline (PBS). Cells were then permeabilised in Triton-X100 (0.1%, 50 μL) and incubated at room temperature (30 min) followed by three more washes with PBS.
(§6) Cells were stained with Hoechst 33342 for nuclei count (excitation/emission wavelength at 387/447 […], DAPI channel, original concentration at 10 mg/ml, final concentration at 2 μg/ml; H1399, Molecular Probes, Eugene, OR). The staining solution was prepared in bovine serum albumin solution (10%). The staining solution was added to each well (30 μL) and incubated in the dark at room temperature (30 min), followed by three washes with PBS and no final aspiration. Plates were foil sealed.
(§7) Plates were imaged on an ImageXpress micro XLS (Molecular Devices, Eugene, OR) equipped with a robotic plate loader (Scara4, PAA, UK).

[2] = system: non-senescent control A549 cells; assay: Nuclei count senolytic assay, TIS model, non-senescent control cells; conditions: for % Cell Survival: control cells, single replicate
Procedure: as §1, §2, §3, §4, §5, §6, §7

[3] = system: proliferating IMR90 cells; assay: BrdU incorporation proliferation assay; conditions: IMR90 cells; single replicates (SUP FIG 9G)
Procedure: 5-bromo-2′-deoxyuridine (BrdU) incorporation was used to measure the number of cells actively replicating DNA. Cells were incubated with 10 μM BrdU (85811, Sigma) for 18 h. After that, cells were fixed with 4% Paraformaldehyde, permeabilised, blocked and then stained for immunofluorescence using BrdU primary antibody (555627 BD Pharmigen), Alexa fluor secondary for detection, and DAPI staining for cell counting. Acquisition was done with a Nikon TI2 microscope and analysis was performed with ImageJ for cell counting.

[4] = system: p16 and p21 mRNA in IMR90 ER:RAS cells; assay: p16 and p21 mRNA expression by RT-qPCR, OIS; conditions: ER:RAS cells; ER:RAS DMSO = 1; n 4
Procedure: (§8) Total RNA was isolated using RNAeasy kit (Quiagen). cDNA was generated with reverse transcriptase iScript (Bio-Rad). RT-qPCR was performed using SYBR Select Master Mix (Applied Biosystems) in OneStepPlus detection system (Applied Biosystems). Oligos for amplification were: NOXA Fw-[…] and Rv-[…]; b-ACTIN Fw-[…] and Rv-[…]; IL1a Fw-[…] and Rv- […]; IL1b Fw-[…] and Rv- […]; IL8 Fw-[…] and Rv-[…]; p16 Fw-CGGTCGGAGGCCGATCCAG and Rv- […]; p21Fw-[…] and Rv- […].

[5] = system: p16 and p21 mRNA in IMR90 cells at passage 27; assay: p16 and p21 mRNA expression by RT-qPCR, replicative senescence; conditions: Replicative senescence; Replicative senescence DMSO = 1; n 3
Procedure: as §8

[6] = system: IL1α, IL1β and IL8 mRNA in IMR90 ER:RAS cells; assay: IL1α, IL1β and IL8 mRNA expression by RT-qPCR, OIS; conditions: ER:RAS cells, RAS OLE group mean, RAS C (DMSO) = 1
Procedure: as §8

[7] = system: IL1α, IL1β and IL8 mRNA in IMR90 cells at passage 27; assay: IL1α, IL1β and IL8 mRNA expression by RT-qPCR, replicative senescence; conditions: Replicative senescence, OLE group mean, DMSO = 1
Procedure: as §8

## CC1(C)CCC(c2ccc(Cl)cc2)=C(CN2CCN(c3ccc(C(=O)NS(=O)(=O)c4ccc(N[C@H](CCN5CCOCC5)CSc5ccccc5)c(S(=O)(=O)C(F)(F)F)c4)cc3)CC2)C1 [navitoclax, reference compound]
[1]; Homo sapiens, A549, log (dose) [M] -5, Senescent cells, mean, read-out: Mean % Cell Survival
  viability at 10 µM: 6.32%
[1]; Homo sapiens, A549, log (dose) [M] -5.33, Senescent cells, mean, read-out: Mean % Cell Survival
  viability at 4.68 µM: 13.6%
[1]; Homo sapiens, A549, log (dose) [M] -5.66, Senescent cells, mean, read-out: Mean % Cell Survival
  viability at 2.19 µM: 17.1%
[1]; Homo sapiens, A549, log (dose) [M] -6, Senescent cells, mean, read-out: Mean % Cell Survival
  viability at 1 µM: 27.7%
[1]; Homo sapiens, A549, log (dose) [M] -6.33, Senescent cells, mean, read-out: Mean % Cell Survival
  viability at 0.468 µM: 43.7%
[1]; Homo sapiens, A549, log (dose) [M] -6.66, Senescent cells, mean, read-out: Mean % Cell Survival
  viability at 0.219 µM: 65.4%
[1]; Homo sapiens, A549, log (dose) [M] -7, Senescent cells, mean, read-out: Mean % Cell Survival
  viability at 0.1 µM: 94%
[1]; Homo sapiens, A549, log (dose) [M] -7.33, Senescent cells, mean, read-out: Mean % Cell Survival
  viability at 0.0468 µM: 91.8%
[1]; Homo sapiens, A549, log (dose) [M] -7.66, Senescent cells, mean, read-out: Mean % Cell Survival
  viability at 0.0219 µM: 109%
[1]; Homo sapiens, A549, log (dose) [M] -8, Senescent cells, mean, read-out: Mean % Cell Survival
  viability at 0.01 µM: 103%
[1]; Homo sapiens, TIS model, etoposide-induced senescent A549, nuclei count, 72 h
  IC50: 0.44 µM
[1]; TIS A549, Hoechst labelling, marginal or no effect on normal cells
  concentration at which a senolytic effect was reached: 1 µM
[1]; log (dose) [M] -5
  % Cell Survival: 4.269% and 4.259% and 10.4231%
[1]; log (dose) [M] -5.33
  % Cell Survival: 11.4818% and 14.3371% and 14.9601%
[1]; log (dose) [M] -5.66
  % Cell Survival: 15.9961% and 17.9964% and 17.29%
[1]; log (dose) [M] -6
  % Cell Survival: 23.7488% and 24.4151% and 34.8866%
[1]; log (dose) [M] -6.33
  % Cell Survival: 46.0255% and 39.6521% and 45.3096%
[1]; log (dose) [M] -6.66
  % Cell Survival: 63.9352% and 60.5879% and 71.5512%
[1]; log (dose) [M] -7
  % Cell Survival: 88.2728% and 86.8026% and 106.99%
[1]; log (dose) [M] -7.33
  % Cell Survival: 62.8557% and 104.139% and 108.461%
[1]; log (dose) [M] -7.66
  % Cell Survival: 92.002% and 113.377% and 120.969%
[1]; log (dose) [M] -8
  % Cell Survival: 100.736% and 105.159% and 103.556%
[2]; Homo sapiens, A549, log (dose) [M] -5, Control cells, mean, read-out: Mean % Cell Survival
  viability at 10 µM: 61.6%
[2]; Homo sapiens, A549, log (dose) [M] -5.33, Control cells, mean, read-out: Mean % Cell Survival
  viability at 4.68 µM: 105%
[2]; Homo sapiens, A549, log (dose) [M] -5.66, Control cells, mean, read-out: Mean % Cell Survival
  viability at 2.19 µM: 107%
[2]; Homo sapiens, A549, log (dose) [M] -6, Control cells, mean, read-out: Mean % Cell Survival
  viability at 1 µM: 129%
[2]; Homo sapiens, A549, log (dose) [M] -6.33, Control cells, mean, read-out: Mean % Cell Survival
  viability at 0.468 µM: 116%
[2]; Homo sapiens, A549, log (dose) [M] -6.66, Control cells, mean, read-out: Mean % Cell Survival
  viability at 0.219 µM: 109%
[2]; Homo sapiens, A549, log (dose) [M] -7, Control cells, mean, read-out: Mean % Cell Survival
  viability at 0.1 µM: 97.7%
[2]; Homo sapiens, A549, log (dose) [M] -7.33, Control cells, mean, read-out: Mean % Cell Survival
  viability at 0.0468 µM: 98.7%
[2]; Homo sapiens, A549, log (dose) [M] -7.66, Control cells, mean, read-out: Mean % Cell Survival
  viability at 0.0219 µM: 96.8%
[2]; Homo sapiens, A549, log (dose) [M] -8, Control cells, mean, read-out: Mean % Cell Survival
  viability at 0.01 µM: 98.9%
[2]; Homo sapiens, TIS model, non-senescent A549, nuclei count, 72 h
  IC50: 10.2 µM
[2]; log (dose) [M] -5
  % Cell Survival: 52.0394% and 75.3687% and 57.3758%
[2]; log (dose) [M] -5.33
  % Cell Survival: 116.878% and 75.1475% and 123.277%
[2]; log (dose) [M] -5.66
  % Cell Survival: 112.518% and 117.404% and 91.8458%
[2]; log (dose) [M] -6
  % Cell Survival: 119.058% and 135.177% and 132.987%
[2]; log (dose) [M] -6.33
  % Cell Survival: 128.692% and 108.112% and 112.083%
[2]; log (dose) [M] -6.66
  % Cell Survival: 114.276% and 101.991% and 109.489%
[2]; log (dose) [M] -7
  % Cell Survival: 92.6864% and 99.5575% and 100.964%
[2]; log (dose) [M] -7.33
  % Cell Survival: 97.6793% and 98.2301% and 100.074%
[2]; log (dose) [M] -7.66
  % Cell Survival: 95.0774% and 99.4838% and 95.7746%
[2]; log (dose) [M] -8
  % Cell Survival: 98.1716% and 98.2301% and 100.445%

## COc1cc([C@@H]2c3cc4c(cc3[C@@H](O[C@@H]3O[C@@H]5CO[C@@H](C)O[C@H]5[C@H](O)[C@H]3O)[C@H]3COC(=O)[C@H]23)OCO4)cc(OC)c1O [Etoposide]
[3]
  % BrdU positive cells: 3.24% and 11.47% and 6.41% and 6.29%

## COC1CC(OC2CCC3(C)C(CCC4C3CCC3(C)C(C5=CC(=O)OC5)C(OC(C)=O)CC43O)C2)OC(C)C1O (stereo not drawn) [OLE]
[4]
  p16 mRNA expression, mean (Test details, Mean 2): 0.5169
  p21 mRNA expression, mean (Test details, Mean 2): 0.5115
[5]
  p16 mRNA expression, mean (Test details, Mean 2): 0.5298
  p21 mRNA expression, mean (Test details, Mean 2): 0.4442
[6]; n=4
  Il1a mRNA expression, mean (Mean 2): 0.4376
[6]; n=5
  Il8 mRNA expression, mean (Mean 2): 0.3662
[6]; n=6
  Il1b mRNA expression, mean (Mean 2): 0.7128
[7]; n=3
  Il1a mRNA expression, mean (Mean 2): 0.411
  Il8 mRNA expression, mean (Mean 2): 0.5871
[7]; n=4
  Il1b mRNA expression, mean (Mean 2): 0.4327
